# Test system: heart failure
# Assay: Treatment of heart failure patients with ketoconazole (case observations, Examples 1 and 2)
# Assay type: in vivo, human
# Method: Also, moderate dyspnea and increased heart rate as well as an increase in liver size (indicative of fluid retention in the liver). Patient being treated for heart failure with lisinopril (Zestril®) Treatment: 400 mg of a racemate of the Cis-2S,4R and Cis-2R,4S isomers of ketoconazole (Fungoral™ tablets—Janssen-Cilag, Belgium) was administered at 10.00 pm every day for a 3 month period. Observations: Body weight reduced by 3.8 kg—attributable to a reduction in fluid retention. Heart rate fell from 72 beats/min to 62 beats/min. Reduction in liver size of 10% and a resulting reduction in liver transaminases • S-ASAT reduced from 0.44 to 0.30 μKat/L • S-ALAT reduced from 1.0 to 0.39 μKat/L Dyspnea, oedema of lower limbs and body fluid in the lungs reduced. Physical health as measured by a subnormal physical exercise test (Faggiano, P. et al. supra) improved by 15%.
# Patient being treated for heart failure with furosemid (40 mg/day)
# Treatment: As for Example 1.
# [1] = Subject 1, 400 mg daily for 3 months
# [2] = Subject 2, treatment as for Example 1
structure (smiles),measurement,setting,value
CC(=O)N1CCN(c2ccc(OCC3COC(Cn4ccnc4)(c4ccc(Cl)cc4Cl)O3)cc2)CC1 (racemic) [ketoconazole],Body weight reduced by,"Subject 1 (on lisinopril), 400 mg at 10.00 pm every day for 3 months, attributable to reduced fluid retention",3.8 kg
same,Dose of co-administered lisinopril (Zestril) could be reduced,[1],half of original dose
same,"Dyspnea, oedema of lower limbs and body fluid in the lungs",[1],reduced
same,"Physical health as measured by a subnormal physical exercise test, improved by",[1],15%
same,Reduction in liver size,[1],10%
same,Heart rate after treatment,"Subject 1, 400 mg daily for 3 months, fell from 72 beats/min",62 beats/min
same,S-ASAT after treatment,"Subject 1, 400 mg daily for 3 months, reduced from 0.44",0.30 μKat/L
same,S-ALAT after treatment,"Subject 1, 400 mg daily for 3 months, reduced from 1.0",0.39 μKat/L
same,Body weight reduced by,"Subject 2 (on furosemid 40 mg/day), treatment as for Example 1",4.2 kg
same,"Dyspnea, oedema of lower limbs and body fluid in lungs",[2],reduced
same,"Physical health as measured by a subnormal physical exercise test, improved by",[2],20%
same,Reduction in liver size,[2],15%
same,Time from commencement of treatment until furosemid could be stopped,[2],≤ 6 weeks
same,Heart rate after treatment,"Subject 2, treatment as for Example 1, fell from 74 beats/min",60 beats/min
same,S-ASAT after treatment,"Subject 2, treatment as for Example 1, reduced from 0.58",0.32 μKat/L
same,S-ALAT after treatment,"Subject 2, treatment as for Example 1, reduced from 0.92",0.68 μKat/L
